Measured values reported in patent US10703746B2, “Mutant IDH1 inhibitors useful for treating cancer” (THE UNITED STATES OF AMERICA, AS REPRESENTED BY THE …, priority 2014, dated 2020).

Columns and labels:
IDH1 R132C = IDH1 R132C (Homo sapiens, UniProt O75874, R132C); test: IDH1 R132C enzymatic assay (NADPH depletion coupled to diaphorase/resazurin); type: biochemical; details: IDH1 R132C enzymatic inhibition, IC50 class
Outline: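 NADPH depletion, read via diaphorase/resazurin coupling, after adding substrate at 0.6 mM α-KG and 0.012 mM NADPH. Beforehand, 0.00032 mg/mL enzyme sat with compound 30 min at room temperature in pH 6.5 potassium phosphate buffer with MgCl2, glycerol and BSA.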

IDH1 R132H = IDH1 R132H (Homo sapiens, UniProt O75874, R132H); test: IDH1 R132H enzymatic assay (NADPH depletion coupled to diaphorase/resazurin); type: biochemical; details: IDH1 R132H enzymatic inhibition, IC50 class
Sequence of IDH1 R132H (O75874 whole entry R132H): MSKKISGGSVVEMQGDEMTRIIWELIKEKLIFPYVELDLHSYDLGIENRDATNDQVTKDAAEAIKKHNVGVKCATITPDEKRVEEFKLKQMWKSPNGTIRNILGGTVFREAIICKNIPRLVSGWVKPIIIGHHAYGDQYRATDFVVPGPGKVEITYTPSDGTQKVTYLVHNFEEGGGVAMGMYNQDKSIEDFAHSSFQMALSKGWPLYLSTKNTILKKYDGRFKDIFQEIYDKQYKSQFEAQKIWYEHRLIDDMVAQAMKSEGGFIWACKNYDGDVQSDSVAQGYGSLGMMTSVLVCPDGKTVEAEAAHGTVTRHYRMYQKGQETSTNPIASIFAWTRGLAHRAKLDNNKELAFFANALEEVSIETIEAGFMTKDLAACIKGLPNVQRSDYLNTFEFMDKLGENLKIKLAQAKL

Sequence of IDH1 R132C (O75874 whole entry R132C): as the sequence (O75874 whole entry R132H) above, with H132C counted along it

Compound: CCc1cccc(CC)c1-n1c(C=C(C)C)c(C(=O)N2CCNCC2)cc(-c2nn(-c3ccc(Cl)cc3)cc2C)c1=O [Compound 638]
- IC50 (IDH1 R132C): 1000 to 5000 nM
- IC50 (IDH1 R132H): < 300 nM

Compound: CCOc1ncc(C)cc1-n1c(C=C(C)C)c(C(=O)N2CCNCC2)cc(-c2nc(-c3ccc(C(F)(F)F)nc3)cs2)c1=O [Compound 639]
- IC50 (IDH1 R132C): 300 to 1000 nM
- IC50 (IDH1 R132H): < 300 nM

Compound: CCc1cccc(CC)c1-n1c(CC(C)C)c(C(=O)N2CCNCC2)cc(-c2ccn(-c3ccc(C(F)(F)F)cc3)n2)c1=O [Compound 640]
- IC50 (IDH1 R132C): < 300 nM
- IC50 (IDH1 R132H): < 300 nM

Compound: CCc1cccc(CC)c1-n1c(C=C(C)C)c(C(=O)N2CCN[C@@H](C(=O)O)C2)cc(-c2nc(-c3ccc(C(F)(F)F)cc3)cs2)c1=O [Compound 641]
- IC50 (IDH1 R132C): < 300 nM
- IC50 (IDH1 R132H): < 300 nM

Compound: CCc1cccc(OC)c1-n1c(C=C(C)C)c(C(=O)N2CCNCC2)cc(-c2nc(-c3ccc(Cl)cc3)cs2)c1=O [Compound 642]
- IC50 (IDH1 R132C): < 300 nM
- IC50 (IDH1 R132H): < 300 nM

Compound: CCc1cccc(CC)c1-n1c(CC(C)C)c(C(=O)N2CCNCC2)cc(-c2coc(-c3ccc(Cl)cc3)n2)c1=O [Compound 643]
- IC50 (IDH1 R132C): 300 to 1000 nM
- IC50 (IDH1 R132H): 300 to 1000 nM

Compound: COc1ccccc1-n1c(C=C(C)C)c(C(=O)N2CCNCC2)cc(-c2nc(-c3ccc(Cl)cc3)cs2)c1=O [Compound 644]
- IC50 (IDH1 R132C): 300 to 1000 nM
- IC50 (IDH1 R132H): < 300 nM

Compound: CN1CCN(c2ccc(C(F)(F)F)c(-n3c4c(cc(-c5nc(-c6ccc(Cl)cc6)cs5)c3=O)C(=O)CC(C)(C)C4)c2)CC1 [Compound 645]
- IC50 (IDH1 R132C): 1000 to 5000 nM
- IC50 (IDH1 R132H): 1000 to 5000 nM

Compound: CCc1cccc(CC)c1-n1c(C=C(C)C)c(C(=O)N2CCNC(C)C2C)cc(-c2nc(-c3ccc(Cl)cc3)cs2)c1=O (stereo not drawn) [Compound 646]
- IC50 (IDH1 R132C): < 300 nM
- IC50 (IDH1 R132H): < 300 nM

Compound: CCCC1CNCCN1C(=O)c1cc(-c2nc(-c3ccc(Cl)cc3)cs2)c(=O)n(-c2c(CC)cccc2CC)c1C=C(C)C (stereo not drawn) [Compound 648]
- IC50 (IDH1 R132C): < 300 nM
- IC50 (IDH1 R132H): 300 to 1000 nM

Compound: O=C1CCCc2c1cc(-c1nc(-c3ccc(Cl)cc3)cs1)c(=O)n2-c1ccc(CO)cc1 [Compound 649]
- IC50 (IDH1 R132C): > 20000 nM
- IC50 (IDH1 R132H): > 20000 nM

Compound: CCc1cccc(CC)c1-n1c(C=C(C)C)c(C(=O)N2CCNC(=O)C2(C)C)cc(-c2nc(-c3ccc(Cl)cc3)cs2)c1=O [Compound 650]
- IC50 (IDH1 R132C): < 300 nM
- IC50 (IDH1 R132H): < 300 nM

Compound: Cc1ccc(CO)cc1-n1c2c(cc(-c3nc(-c4ccc(Cl)cc4)cs3)c1=O)C(=O)CCC2 [Compound 651]
- IC50 (IDH1 R132C): 1000 to 5000 nM
- IC50 (IDH1 R132H): 1000 to 5000 nM

Compound: COC(=O)c1ccsc1-n1c2c(cc(-c3nc(-c4ccc(Cl)cc4)cs3)c1=O)C(=O)CC(C)(C)C2 [Compound 652]
- IC50 (IDH1 R132C): 300 to 1000 nM
- IC50 (IDH1 R132H): 300 to 1000 nM

Compound: CCc1cccc(CC)c1-n1c(C=C(C)C)c(C(=O)N2CCNC(C(N)=O)C2)cc(-c2ccn(-c3ccc(Cl)cc3)n2)c1=O (stereo not drawn) [Compound 653]
- IC50 (IDH1 R132C): < 300 nM
- IC50 (IDH1 R132H): < 300 nM

Compound: CCc1cccc(CC)c1-n1c(CC(C)C)c(C(=O)N2CCNCC2)cc(-c2nc(-c3ccc(C(F)(F)F)cc3)cs2)c1=O [Compound 654]
- IC50 (IDH1 R132C): < 300 nM
- IC50 (IDH1 R132H): < 300 nM

Compound: CCc1cccc(F)c1-n1c(C=C(C)C)c(C(=O)N2CCNCC2)cc(-c2nc(-c3ccc(Cl)cc3)cs2)c1=O [Compound 655]
- IC50 (IDH1 R132C): < 300 nM
- IC50 (IDH1 R132H): < 300 nM

Compound: CCc1ccc(C)cc1-n1c(C=C(C)C)c(C(=O)N2CCNCC2)cc(-c2nc(-c3ccc(Cl)cc3)cs2)c1=O [Compound 656]
- IC50 (IDH1 R132C): < 300 nM
- IC50 (IDH1 R132H): < 300 nM

Compound: CCc1cccc(CC)c1-n1c(C=C(C)C)c(C(=O)N2CCNC(C#N)C2)cc(-c2nc(-c3ccc(Cl)cc3)cs2)c1=O (stereo not drawn) [Compound 657]
- IC50 (IDH1 R132C): < 300 nM
- IC50 (IDH1 R132H): < 300 nM

Compound: CCc1cccc(CC)c1-n1c(CC(C)C)c(C(=O)N2CCNCC2)cc(-n2cc(-c3ccc(Cl)cc3)cn2)c1=O [Compound 658]
- IC50 (IDH1 R132C): 5000 to 20000 nM
- IC50 (IDH1 R132H): 5000 to 20000 nM

Compound: CCc1cccc(CC)c1-n1c(C=C(C)C)c(C(=O)N2CCC3(CCNC3)C2)cc(-c2nc(-c3ccc(Cl)cc3)cs2)c1=O (stereo not drawn) [Compound 659]
- IC50 (IDH1 R132C): < 300 nM
- IC50 (IDH1 R132H): 300 to 1000 nM

Compound: CCc1cccc(CC)c1-n1c(C=C(C)C)c(C(=O)N2C(C)CNCC2C(=O)O)cc(-c2nc(-c3ccc(Cl)cc3)cs2)c1=O (stereo not drawn) [Compound 660]
- IC50 (IDH1 R132C): < 300 nM
- IC50 (IDH1 R132H): < 300 nM

Compound: COc1ncccc1-n1c2c(cc(-c3nc(-c4ccc(Cl)cc4)cs3)c1=O)C(=O)CC(C)(C)C2 [Compound 661]
- IC50 (IDH1 R132C): 300 to 1000 nM
- IC50 (IDH1 R132H): 1000 to 5000 nM

Compound: CCc1cccc(CC)c1-n1c(CC(C)C)c(C(=O)N2CCNCC2)cc(-c2nc(-c3ccc(Cl)cc3)c(Cl)s2)c1=O [Compound 662]
- IC50 (IDH1 R132C): < 300 nM
- IC50 (IDH1 R132H): 300 to 1000 nM

Compound: COc1ccc(-n2c3c(cc(-c4nc(-c5ccc(Cl)cc5)cs4)c2=O)C(=O)CC(C)(C)C3)c(Cl)c1 [Compound 663]
- IC50 (IDH1 R132C): 1000 to 5000 nM
- IC50 (IDH1 R132H): > 20000 nM

Compound: CCc1cccc(CC)c1-n1c(C(C)(C)F)c(C(=O)N2CCNCC2)cc(-c2nc(-c3ccc(Cl)cc3)cs2)c1=O [Compound 664]
- IC50 (IDH1 R132C): 300 to 1000 nM
- IC50 (IDH1 R132H): 300 to 1000 nM

Compound: CCOc1ccc(Cl)cc1-n1c(C=C(C)C)c(C(=O)N2CCNCC2)cc(-c2nc(-c3ccc(C(F)(F)F)cc3)cs2)c1=O [Compound 665]
- IC50 (IDH1 R132C): < 300 nM
- IC50 (IDH1 R132H): < 300 nM

Compound: CCc1ccc(Cl)c(CC)c1-n1c(C=C(C)C)c(C(=O)N2CCNCC2)cc(-c2nc(-c3ccc(Cl)cc3)cs2)c1=O [Compound 666]
- IC50 (IDH1 R132C): < 300 nM
- IC50 (IDH1 R132H): < 300 nM

Compound: COc1ncc(C)cc1-n1c(C=C(C)C)c(C(=O)N2CCNCC2)cc(-c2nc(-c3ccc(Cl)cc3)cs2)c1=O [Compound 667]
- IC50 (IDH1 R132C): < 300 nM
- IC50 (IDH1 R132H): < 300 nM

Compound: COc1cccc(F)c1-n1c2c(cc(-c3nc(-c4ccc(Cl)cc4)cs3)c1=O)C(=O)CC(C)(C)C2 [Compound 668]
- IC50 (IDH1 R132C): 1000 to 5000 nM
- IC50 (IDH1 R132H): 1000 to 5000 nM

Compound: COc1ccc(F)cc1-n1c2c(cc(-c3nc(-c4ccc(Cl)cc4)cs3)c1=O)C(=O)CC(C)(C)C2 [Compound 669]
- IC50 (IDH1 R132C): 300 to 1000 nM
- IC50 (IDH1 R132H): 300 to 1000 nM

Compound: CCc1cccc(CC)c1-n1c(C2CCNCC2)c(C(=O)N2CCNCC2)cc(-c2nc(-c3ccc(Cl)cc3)cs2)c1=O [Compound 670]
- IC50 (IDH1 R132C): > 20000 nM
- IC50 (IDH1 R132H): 5000 to 20000 nM

Compound: CCOc1ccc(C)cc1-n1c(CC(C)C)c(C(=O)N2CCNCC2)cc(-c2nc(-c3ccc(C(F)F)cc3)cs2)c1=O [Compound 685]
- IC50 (IDH1 R132C): < 300 nM
- IC50 (IDH1 R132H): < 300 nM

Compound: CCOc1ccc(F)cc1-n1c(CC(C)C)c(C(=O)N2CCNCC2)cc(-c2nc(-c3ccc(C(F)F)cc3)cs2)c1=O [Compound 686]
- IC50 (IDH1 R132C): 300 to 1000 nM
- IC50 (IDH1 R132H): 300 to 1000 nM

Compound: CCOc1ccc(Cl)cc1-n1c(CC(C)C)c(C(=O)N2CCNCC2)cc(-c2nc(-c3ccc(C(F)F)cc3)cs2)c1=O [Compound 687]
- IC50 (IDH1 R132C): 300 to 1000 nM
- IC50 (IDH1 R132H): 300 to 1000 nM

Compound: CCOc1ccc(OCC)c(-n2c3c(cc(-c4nc(-c5ccc(Cl)cc5)cs4)c2=O)C(=O)CC(C)(C)C3)c1 [Compound 828]
- IC50 (IDH1 R132C): < 300 nM
- IC50 (IDH1 R132H): 300 to 1000 nM
